Source: patent US20120021988A1, “METHODS FOR TREATING IMMUNE THROMBOCYTOPENIA” (priority 2007, published 2012)
Where “and” joins values, the source holds several entries; their conditions need not be identical. Equal values may be shown once.

How the values were obtained:
Fcγ1 = assay: Repeated FcγR reverse ELISA with SEQ ID NO:20 (Table 3); type: binding
mice having induced ITP = assay: In vivo treatment of ITP induced by rabbit anti-platelet antibody, platelet counting by flow cytometry; set-up: species or system CD-1 mice; details: for Platelet counts, individual mice: intraperitoneal, 24 hours, listed as AP; for Platelet counts, mean: 3 mice, ITP alone mean 170.7, Nil 1016
Method: Mice: CD-1 mice approximately 6-8 weeks of age were obtained from Charles River (Montreal). The animals were housed 3-5 per cage in filter-topped cages. The temperature and relative humidity were maintained at […] and 35-70%, respectively, and a 12 hour light/dark cycle was used. The mice were fed rodent chow and water ad libitum.
Anti-platelet antibodies to induce ITP: A rabbit anti-platelet antibody (Inter-Cell Technologies, Inc., Jupiter, Fla.; Cat. No. A31440) was used to induce ITP. Each mouse received 10 μl antibody-containing serum, diluted with 190 μl PBS for injection, such that the final injection volume was 200 μl for all groups injected with anti-platelet antibody.
On the day of use, one vial of rabbit anti-platelet antibody was removed from the freezer, placed in a 22° C. water bath, and shaken. The tube was checked every 30 seconds, and when it was completely thawed it was placed in a microcentrifuge and centrifuged at 10,000×g (11,000 rpm) for 10 minutes at 4° C. The supernatant fluid was transferred to a new tube and the pellet was discarded. The supernatant was placed on ice until used or diluted, as appropriate. Unused portions of the sera were discarded.
Therapeutic treatment of ITP: IVIg was used as a standard control treatment for the ITP induced by the rabbit anti-platelet antibody. The IVIg was Gamimmune® N, 10%. Treatment with IVIg consisted of an intraperitoneal injection of 50 mg (500 μl) IVIg, a dose that was equivalent to a dose of 2,000 mg/kg body weight.
Platelet enumeration: All mice were bled via the saphenous vein. 50 μL of blood were collected into 450 μL PBS/1% EDTA. The blood was further diluted in PBS/1% EDTA. Platelets were enumerated by flow cytometry with a Guava microcapillary cytometer (Guava EasyCyteMini, Guava Technologies, Inc., Hayward, Calif.), using forward scatter (FSC) versus side scatter (SSC) to gate platelets.
Peptides used to inhibit ITP: Peptides having the amino acid sequences set forth in SEQ ID NO:2 ([…]), SEQ ID NO:20 ([…]), and a control peptide in which Trp7, Val13 and Trp14 of SEQ ID NO:20 were replaced by alanines ([…]; SEQ ID NO:57) were tested for their ability to inhibit ITP. Alanine substation of Val13 and Trp14 causes a decrease in binding affinity (measured by ΔΔG, where G=Gibbs Energy) of greater than 1,000 fold.
Peptides were stored at −20° C. until the day of use. On the day of use, peptides were removed from the freezer, placed in a 22° C. water bath, shaken, and checked every 30 seconds for thawing. When thawed, the peptides were placed on ice until use. For samples that received a 10× dose of peptide, the following were sequentially added to a 1.5 ml polypropylene Eppendorf tube: 623 μl PBS (pH 7.22), 35 μL rabbit anti-plaletet IgG, and 42 μl peptide, with mixing after each addition. For samples having a 100× dose of peptide, the following were added sequentially to a 1.5 ml polypropylene Eppendorf tube: 245 μl PBS (pH 7.22), 35 μL rabbit anti-plaletet IgG, and 420 μl peptide, with mixing after each addition. The peptides were incubated for at least 30 minutes at 22° C. prior to injection into mice. (A 15 minute incubation in the laboratory, transport of the mixtures to the Vivarium, and injection took roughly an additional 30 minutes.)
The final volume of each peptide mixture was 700 μL, which was sufficient for injection of 3 mice (200 μl/mouse, plus 100 μl to cover dead volume). For the 10× dose/mouse of peptide, 12 μg of peptide (12 μl of 1 mg/ml solution) was mixed with 100 μg of the rabbit anti-platelet IgG (10 μl of 10 mg/ml solution). The volume of 700 μl was about 3.5× the volume injected per mouse (200 μl). To obtain the dose of peptide and rabbit IgG for the 700 μl final volume, dose of peptide or Rabbit IgG per mouse was multiplied by 3.5 (e.g., 12 μl peptide/mouse×3.5=42 μl, 10 μl Rabbit IgG/mouse×3.5=35 μl). PBS (623 μl, pH 7.22) was added to make up the final volume 700 μl. […]

FCγIIIb (NA2) = assay: Repeated FcγR reverse ELISA with SEQ ID NO:20 (Table 3); type: binding
Method: (§1) Experiments with SEQ ID NO:20 were repeated. Costar microtiter plates were coated with 1:10 dilutions of highly purified FcγIIa (His 131 allele aka […]), FcγIIb and FcγIIIb and incubated for 24 hours. The plates were washed and then blocked with 10 mg/ml BSA blocking solution for 24 hours. PAP immune complexes were formed as described in Example 2. PAP (100 μl) were pre-incubated with 100 μl of peptide for one hour. PAP/peptide mixtures were added to the FcγR coated plates and incubated for one hour. After washing, plates were incubated with ABTS substrate for 15 minutes and read at 405 nm.

FcγIIa (His 131 allele) = assay: as above; type: binding; details: H131 allele
Method: as §1

FCγIIb/c = assay: as above; type: binding
Method: as §1

[1] = system: Fc receptor (FcγI, FcγIIa/FcγIIb, and FcγIII); assay: FcγR reverse ELISA, overall statements on FcR binding to PAP immune complexes
Method: Once the reverse ELISA protocol was established using the C1q assay, the assay was redesigned using FcγIIa, FcγIIb and FcγIII in place of C1q. Highly purified FcγIIa, FcγIIb and FcγIII (R&D Systems, Minneapolis, Minn.) were immunoadsorbed onto plastic microwells. After optimizing the FcγR reverse ELISA system, simple competitive inhibition experiments using polypeptides provided herein were conducted to investigate their ability to inhibit binding of immune complexes to purified FcγR.
Falcon microtiter plates were coated with 1:10 dilutions of highly purified FcγIIa, FcγIIb and FcγIII and incubated for 24 hours. The plates were washed and then blocked with 5×BSA blocking solution (Alpha Diagnostic International, San Antonio, Tex.) for 24 hours. PAP immune complexes were formed as described in Example 1. PAP (100 μl) were pre-incubated with 100 μl of peptide for one hour. PAP/peptide mixtures were added to the FcγR coated plates and incubated for one hour. After washing, plates were incubated with ABTS substrate (Quidel Corp.) for 15 minutes and read at 405 nm.
Experiments with SEQ ID NO:20 were repeated. Costar microtiter plates were coated with 1:10 dilutions of highly purified FcγIIa (His 131 allele aka […]), FcγIIb and FcγIIIb and incubated for 24 hours. […] After washing, plates were incubated with ABTS substrate for 15 minutes and read at 405 nm.

[2] = ITP + 10X molar amount of peptide
[3] = ITP + 100X molar amount of peptide

Ala-Pro-Pro-Asp-Cys-Ala-Trp-His-Leu-Gly-Glu-Leu-Val-Trp-Cys-Thr (APPDCAWHLGELVWCT) [SEQ ID NO:20]
Fcγ1 (read at 405 nm) (Fcγ1; repeat experiment, positive control 2.333): 0.264
% inhibition of IC binding, Fcγ1 (Fcγ1; versus positive control): 89%
Platelet counts, individual mice (mice having induced ITP; [2]): 2.03e+11 L⁻¹ and 2.61e+11 L⁻¹ and 1.97e+11 L⁻¹
Platelet counts, mean (mice having induced ITP; [2]): 2.203e+11 L⁻¹
Platelet counts, individual mice (mice having induced ITP; [3]): 7.59e+11 L⁻¹ and 6.42e+11 L⁻¹ and 4.33e+11 L⁻¹
Platelet counts, mean (mice having induced ITP; [3]): 6.113e+11 L⁻¹
Effect on induced ITP, 100× versus 10× (mice having induced ITP; first experiment, 100× molar): greater effect than 10× Peptide AP
Effect on induced ITP (mice having induced ITP; first experiment, Table 4, 10× and 100× molar): ameliorated induced ITP
Amelioration of induced ITP/AITP compared with IVIg (mice having induced ITP; second experiment, FIG. 1, 10× molar and 100× molar, 24 hours after treatment): ameliorated the induced ITP/AITP better than the currently accepted treatment for ITP (IVIg)
FCγIIIb (NA2) (read at 405 nm) (FCγIIIb (NA2); repeat experiment, positive control 3.060): 0.266
% inhibition of IC binding, FCγIIIb (NA2) (FCγIIIb (NA2); versus positive control): 91%
FCγIIa* (read at 405 nm) (FcγIIa (His 131 allele); repeat experiment, positive control 3.509): 0.209
% inhibition of IC binding, FCγIIa* (FcγIIa (His 131 allele); versus positive control): 94%
FCγIIb/c (read at 405 nm) (FCγIIb/c; repeat experiment, positive control 2.218): 0.266
% inhibition of IC binding, FCγIIb/c (FCγIIb/c; versus positive control): 88%
Overall inhibition of FcR binding to PAP (ranking in words) ([1]; summary of Table 2: FcγIIa, FcγIIb, FcγIIIa): greatest overall inhibition of FcR binding to PAP
Inhibition of Fc receptor binding to soluble PAP immune complexes ([1]; summary of Table 3): inhibited binding of all three major classes of Fc receptor
